{"source": "patent US10761045B2", "about": "“Sensor, sensor system, method of manufacturing sensor, and method of measuring concentration of target substance” (PHC Holdings Corporation, priority 2010, dated 2020)", "key": {"[1]": {"test": "Cyclic voltammetry of reagent solutions A and B (PQSA, FAD-GDH, with or without imidazole)", "format": "physicochemical", "procedure": "Reagent solutions A and B having the following compositions were prepared.\nAdditive: Imidazole (structural formula is illustrated below) (7.5 mM)\nElectron acceptor: PQSA (7.5 mM)\nEnzyme: FAD dependent-glucose dehydrogenase (FAD-GDH) 3.5 MU/L (liter)\nBuffer solution: 100 mM sodium phosphate buffer solution (pH 7.0)\nReagent solution B has the same composition as reagent solution A except the absence of imidazole.\nFirst, by sputtering palladium, 8 nm-thick conductive layer 3 was deposited on substrate 2 which was 30 mm in length, 7 mm in width and 0.2 mm in thickness and which contained polyethylene terephthalate as its main component. Thereafter, a 0.1 mm-width non-conductive track was formed by laser ablation, to form electrodes 31 to 33. Electrode 31 corresponds to a working electrode, and electrode 32 to a counter electrode. Spacer 5 (0.145 mm thick) having a cut-out with a length of 3.4 mm and a width of 1.2 mm and cover 6 were sequentially attached to the substrate having the electrodes formed thereon. In this way a sensor electrode was manufactured that has capillary 51 with a volume of 0.6 μL.\nCyclic voltammetry was performed for the resultant reagent solution using the aforementioned sensor electrode. As a reference electrode, a silver/silver chloride (saturated potassium chloride) electrode (hereinafter “Ag|AgCl”) was used. […]"}, "[2]": {"test": "Stability test (exposure test) of sensor at 30° C., 80% humidity", "details": "additive in reagent layer; additive conc. 1.0-5.0 mM", "experimental": "Sensors were manufactured in the same manner as described in section [1-5] using the reagent solutions prepared above. The sensors manufactured were exposed to an environment of high temperature and humidity (30° C., 80% relative humidity) for 24 hours. Response current values of the pre- and post-exposed sensors were measured for a series of glucose solutions of known concentrations.\nSensors were manufactured using fresh reagent solutions having the same compositions as described above. The sensors were subjected to an exposure experiment where they were allowed to stand for 24 hours at 30° C. and 80% humidity. Response current values of non-exposed sensors (i.e., sensors stored under the ambient condition (25° C., 5% humidity) for 24 hours) and the exposed sensors were measured for a series of glucose solutions of known concentrations."}, "[3]": {"test": "Storage stability of reagent solution (response current of sensors made with stored vs fresh reagent solution)", "format": "physicochemical", "details": "additive in reagent solution C composition (PQSA, FAD-GDH); additive conc. 1.0-5.0 mM", "excerpt": "A sensor having the configuration illustrated in FIG. 1 was manufactured. The detailed procedure will now be described. First, by sputtering palladium, 8 nm-thick conductive layer 3 was deposited on substrate 2 which was 30 mm in length, 7 mm in width and 0.2 mm in thickness and which contained polyethylene terephthalate as its main component. Thereafter, a 0.1 mm-width non-conductive track was formed by laser ablation, to form electrodes 31 to 33. Electrode 31 was designed to function as a working electrode, electrode 32 as a counter electrode, and electrode 33 as a sensing electrode.\nUsing a microsyringe, 1.2 μL of each reagent solution was applied to form reagent layer 4 in a shape of 2.2 mm diameter-circular. After formation of reagent layer 4, spacer 5 (0.145 mm thick) having a cut-out with a length of 3.4 mm a width of 1.2 mm and cover 6 were sequentially attached to the substrate having the electrodes formed thereon. In this way a sensor was manufactured that has a capillary having a volume of 0.6 μL. […]\nResponse current values of each sensor were measured using a series of glucose solutions of known concentrations.\nBy adding as an additive imidazole, histamine, histidine, 2-aminoimidazole, 4,5-bis(hydroxymethyl)imidazole, 1,2,4-triazole, 3-amino-1,2,4-triazole, 4-amino-1,2,4-triazole, 3,5-diamino-1,2,4-triazole, 2-methylimidazole, or 1,2-dimethylimidazole, reagent solutions were prepared that contain the same composition as reagent solution C except the type and concentration of the additive. The concentrations of the additives are as indicated in Tables below and the accompanying drawings.\nFurther, sensors were manufactured using the same reagent solutions stored at 25° C. and 5% humidity for 24 hours after preparation. […]"}}, "data": [{"substance": "Imidazole", "values": [{"measurement": "shift of the peak oxidation potential of PQSA after storage of reagent solution", "setting": "[1]; 21 hours at 25° C. and 5% relative humidity, FIG. 4", "value": "positive shift of the peak oxidation potential was limited"}, {"measurement": "shift of the peak potential of PQSA on addition of additive", "setting": "[1]; imidazole 7.5 mM, PQSA 7.5 mM, FAD-GDH, pH 7.0, FIG. 4 vs FIG. 5", "value": "negative shift"}, {"measurement": "Sensor stability % change in response current value between before and after 24 hours exposure at 30° C. and 80% humidity", "setting": "[2]", "value": "−50", "unit": "%"}, {"measurement": "Reagent solution stability % change in response current value between before and after 24 hours storage at 25° C.", "setting": "[3]", "value": "−1", "unit": "%"}]}]}
